Read-outs that look alike come from different tables or passages of the source.
Assays:
1A9 ovarian carcinoma = assay: Anchorage Dependent Growth Monolayer Assay (ADGMA), MTT, 3-day exposure; type: cell-based; settings: Homo sapiens, read-out: IC50 (average±S.E.M.) 1A9
Source text: (§1) As indicated above, all of the compounds of formula I are anti-tumor agents and are, therefore, useful in inhibiting the growth of various lymphomas, sarcomas, carcinomas, myelomas, and leukemia cell lines. […] This assay was adapted from the 60 cell line assay used by the National Cancer Institute (NCI) with the following modifications:
(§2) 1) four cell lines representative for the important tumor types, viz., MIP 101 colon carcinoma, HCT 116 colon carcinoma, 1A9 ovarian carcinoma and 1A9PTX22 ovarian carcinoma were utilized; and
(§3) 2) a tetrazolium derivative, viz., MTT, was utilized to determine cell density.
(§4) The ADGMA compares the number of viable cells following a 3-day exposure to a test compound relative to a number of cells present at the time the test compound was added. […] The absorbence at 540 nm (A540) of the formazan derivative is proportional to the number of viable cells. The IC50 for a test compound is the concentration of compound required to reduce the final cell number to 50% of the final control cell number. If cell proliferation is inhibited, the assay further defines compounds as cytostatic (cell number after 3-day compound incubation>cell number at time of compound addition) or cytotoxic (cell number after 3-day compound incubation<cell number at time of compound addition).
(§5) The HCT 116 colon carcinoma cell line was obtained from the American Type Culture Collection (ATCC, Rockville, Md.). The MIP 101 colon carcinoma was obtained from Dr. Robert Kramer (Bristol Meyers Squibb) and was previously described (Niles R M, Wilhelm S A, Steele G D JR, Burke B, Christensen T, Dexter D, O'Brien M J, Thomas P, Zamcheck N. Isolation and characterization of an undifferentiated human colon carcinoma cell line (MIP-101). Cancer Invest. 1987;5(6):545-52.). The 1A9 and the 1A9PTX22 ovarian tumor cell lines were obtained from Dr. Tito Fojo, Medicine Branch, Division of Clinical Sciences, National Cancer Institute, National Institutes of Health, Bethesda, Md. 20892. The 1A9 is a clone of the ovarian carcinoma cell line, A2780 (Giannakakou P, Sackett, D L, Kang Y -K, Zhan Z, Buters J T M, Fojo T, Poruchynsky M S. Paclitaxel-resistant human ovarian cancer cells have mutant β-tubulins that impaired paclitaxel-driven polymerization. J. Biol. Chem. 1997, 272(4):17118-17125). The 1A9PTX22 subline was isolated as an individual clone from the 1A9 cell line in a single step selection by exposure to 5 ng/mL paclitaxel in the presence of 5 μg/mL of verapamil. All cell lines were used between passages 4-20 following thawing. MIP 101 colon carcinoma, HCT 116 colon carcinoma, 1A9 ovarian carcinoma and 1A9PTX22 ovarian carcinoma cell lines are maintained and plated in RPMI 1640 medium containing 10% fetal bovine serum.
(§6) Cells are trypsinized and counted using hemacytometer to determine cell concentrations. Cells were then plated in their respective maintenance media (200 μL/well) in 96-well plates at the following concentrations: MIP 101, 2000 cells/well, HCT 116, 2000 cells/well, 1A9, 10000 cells/well, and 1A9PTX22, 10000 cells/well. […] Initial cell densities, assayed one day after plating, are roughly 0.10-0.20 A540 absorbence units greater than the media blank. Ninety six well plates were seeded on day 0 and the test compounds are added on day 1. A “time 0” plate was created that received media only in row A and one cell line/row in rows B-E. The “time 0” plate was processed 24 hours after plating (at the time when drugs were added to experimental plates), as follows: To each well 5 microliters of the MTT stock solution (0.5 mg/ml in PBS) was added to each well and then incubated for three hours at 37 degrees C., 5% CO2, in a humidified environment. Media was then carefully and completely removed. Plates were allowed to dry in the dark. DMSO (dimethylsulfoxide) was added to each well (100 μl/well) and plates were placed on an orbital shaker for 2 hours. […]

[1] = test system: 1A9PTX22 ovarian carcinoma; assay: as above; type: cell-based; settings: Homo sapiens, 1A9/ptx-22, 72 h, read-out: IC50 (average±S.E.M.) 1A9PTX22
Source text: as §1, §2, §3, §4, §5, §6

HCT 116 colon carcinoma = assay: as above; type: cell-based; settings: Homo sapiens, read-out: IC50 (average±S.E.M.) HCT116
Source text: as §1, §2, §3, §4, §5, §6

MIP 101 colon carcinoma = assay: as above; type: cell-based; settings: Homo sapiens, 72 h, read-out: IC50 (average±S.E.M.) MIP101
Source text: as §1, §2, §3, §4, §5, §6

[2] = Body weight change of athymic nude mice in the hollow fiber model; type: in vivo; settings: Paclitaxel 15 mg/kg i.v. daily for 5 days, Ex. 1 45 mg/kg i.v. once; for Δ Mean % Body Weight, Exp. 1: Experiment 1; for Δ Mean % Body Weight, Exp. 2: Experiment 2
Experimental: Outbred athymic (nu/nu) female mice (“Chrls:Athymic Nude-nu”, Charles River Laboratories, Wilmington, Mass.) were anesthetized with ip injections of Ketamine/Xylazine (150 mg/kg, and 12 mg/kg body weight, respectively). For the subcutaneous implantation an 11-gauge trocar containing one or two hollow fibers was inserted through an incision made with scissors at the nape of the neck of an animal, and fibers were released by retracting the trocar while depressing the plunger. This procedure was repeated until all four hollow fibers were implanted. One wound clip was used to close the skin incision. After the surgery each animal received a single, subcutaneous injection of 0.4 mg/kg butorphenol to relieve any potential pain. Animals recovered from the anesthesia on a heating pad, before returning to their cages.
One day after the implantation (4 hollow fibers/animal, each hollow fiber containing one cell line: HCT 116, MIP 101, 1A9, and 1A9PTX22) animals were randomly sorted into five groups of six mice/group. The first group was sacrificed, hollow fibers were retrieved, and processed according to a published procedure, to determine the number of viable cells in each fiber (T0.)
The remaining groups were treated as follows:
Group 1: Example 1, 45 mg/kg, iv, once.
Group 2: Vehicle for Example 1 (16.7% Cremophor EL, 8.3% ethanol, 75% D5W), iv, once.
Group 3: Paclitaxel, 15 mg/kg, iv, daily for 5 days.
Group 4: Vehicle for paclitaxel (12.5% Cremophor EL, 12.5% ethanol, 75% D5W) iv, daily for 5 days.
On day 7 all animals were sacrificed, and hollow fibers were retrieved and processed according to a published procedure, to determine the number of viable cells in each fiber (T—for fibers from animals treated with experimental compounds, C—for fibers from animals treated with corresponding vehicles). Antitumor activity was expressed as % Mean ΔT/Mean ΔC [comparing cell growth for treatment group to vehicle control group, where % Mean ΔT/Mean ΔC=(Mean T−Mean T0/Mean C−Mean T0)×100%]. Regressions were calculated using the formula: (1−Mean T/Mean T0)×100%. Statistical significance of the results was uniformly evaluated using a two-tailed Student's t-test, as recommended by a statistician, following analysis of our representative experiments (Colin Goodal, statistical consultant to Novartis, personal communication).

Row | Compound | IC50 (1A9 ovarian carcinoma; 1A9, 72 h) | IC50 [1] | IC50 (HCT 116 colon carcinoma; HCT-116, 72 h) | IC50 (MIP 101 colon carcinoma) | Δ Mean % Body Weight, Exp. 1 [2] | Δ Mean % Body Weight, Exp. 2 [2] | IC50 (1A9 ovarian carcinoma; 72 h, 1A9 cells, 3-day exposure, MTT) | IC50 ([1]; 1A9PTX22 cells, 3-day exposure, MTT) | IC50 (HCT 116 colon carcinoma; 72 h, HCT 116 cells, 3-day exposure, MTT) | IC50 (MIP 101 colon carcinoma; MIP 101 cells, 3-day exposure, MTT)
1 | C=C/C=C\[C@H](C)[C@H](OC(N)=O)[C@@H](C)[C@@H](O)[C@@H](C)C/C(C)=C\[C@H](C)[C@@H](O)[C@@H](C)/C=C\[C@@H](O)C[C@H](O)[C@H](C)[C@H](O)[C@@H](C)C(=O)[O-].[Na+] [Ex. 1, (2R,3S,4S,5S,7S,8Z,10S,11S,12S,13Z,16S,17S,18S,19S,20S,21Z)-19-[(aminocarbonyl)oxy]-3,5,7,11,17-pentahydroxy-2,4,10,12,14,16,18,20-octamethyl-8,13,21,23-tetracosatetraenoic acid, sodium salt] | 100 ± 40 nM | 200 ± 90 nM | 50 ± 20 nM | 300 ± 10 nM | Exp. 1: None | Exp. 2: None |  |  |  | 
2 | CC(=O)O[C@H]1C(=O)[C@@]2(C)[C@H]([C@H](OC(=O)c3ccccc3)[C@]3(O)C[C@H](OC(=O)[C@H](O)[C@@H](NC(=O)c4ccccc4)c4ccccc4)C(C)=C1C3(C)C)[C@]1(OC(C)=O)CO[C@@H]1C[C@@H]2O [paclitaxel] |  |  |  |  | Exp. 1: None | Exp. 2: None | 47 ± 7 nM | 1 ± 1 nM | 0.3 ± 0.2 nM | 200 ± 60 nM
